{"source": "patent US10070660B2", "about": "“Pet food palatability with antimicrobial properties based on organic acids” (KEMIN INDUSTRIES, INC., priority 2012, dated 2018)", "key": {"[1]": {"test_system": "Salmonella enterica subsp. enterica (ATCC 51741)", "assay": "Microplate assay, inhibition of S. enterica growth in modified TSB (OD600 over 48 h)", "assay_type": "cell-based", "conditions": "microtiter plate, 0.025-0.100% in TSB, 37 C", "method": "FIG. 1 is a chart of the effect of fumaric acid (0%; 0.025%; 0.050%; 0.100%) on the growth of Salmonella enterica ser. Infantis in modified tryptic soy broth (pH 4.93) for 48 hours at 37° C.\nSalmonella enterica subsp. enterica (ATCC® 51741™), was obtained from the American Type Culture Collection (ATCC®) and kept as a frozen stock at −70° C. in Bacto™ Tryptic Soy Broth (TSB) with 20% (w/v) glycerol. One vial of the frozen stock culture was thawed at room temperature and 0.100 mL was transferred to 100 mL TSB (pH 7.2) containing (g/l) pancreatic digest of casein: 17, enzymatic digest of soybean meal: 3, sodium chloride, 5, dipotassium phosphate: 2.5, dextrose, 2.5, then incubated at 37° C. for 24 hours on a platform shaker set at 190 rpm. […]\nA 0.20% stock solution of fumaric acid was made by dissolving 0.100 g (w/v) fumaric acid in 50 ml sterile deionized water in a flask. […] The pH of each fumaric-TSB solution was measured (Table 1). […] The microplate was placed in a Versamax Microplate Reader (Molecular Devices) (37° C.) with wavelength set to 600 nm. The optical density (OD600) was read every 2 hours for 48 hours.\nSolutions of fumaric acid at three different concentrations (Table 3) were evaluated for inhibition of S. enterica growth in vitro using a microplate assay and measuring optical density over time (FIG. 1)."}, "[2]": {"test_system": "Salmonella spp.", "assay": "Cat palatant solutions (15% w/v) challenged with liquid Salmonella spp. inoculum", "assay_type": "cell-based, Salmonella enterica", "method": "In the Phase 3 experiment described below, solutions (15% w/v) of cat palatant samples were challenged with a “Low” concentration (1,000 CFU/ml) and a “High” concentration (1,000,000 CFU/ml) of a liquid Salmonella spp. inoculum in an effort to evaluate the antimicrobial effect of each palatant. Salmonella was enumerated from each palatant at three time points after challenge; immediately, 24 hours and 6 days.\n(§1) Preparation of palatant samples. Four samples of a cat palatant formulated with varying levels of fumaric acid (Table 6) were aseptically weighed in duplicate sterile 50 ml conical test tubes. To each test tube, 10 ml of sterile deionized water was added and mixed by vortex. The pH of a 5% (w/v) solution of each palatant was also measured (Table 6).\nFive Salmonella enterica serovars [S. enterica (ATTC® 51741™), Montevideo (ATCC® 8387™), Typhimurium (ATCC® 14028™), Senftenberg (ATCC® 43845™), Schwarzengrund (4012)] were kept as frozen stocks at −70° C. in Bacto™ Tryptic Soy Broth (TSB) with 20% (w/v) glycerol. One vial of each culture was thawed at room temperature and 0.100 ml was transferred to […] (pH 7.2) containing (g/l) pancreatic digest of casein: 17, enzymatic digest of soybean meal: 3, sodium chloride, 5, dipotassium phosphate: 2.5, dextrose, 2.5, then incubated at 37° C. for 24 hours on a platform shaker set at 190 rpm. One ml of each overnight culture was diluted in 9 ml 0.85% saline and enumerated using a Petroff Hauser Counting Chamber. Each culture was further diluted in 0.85% saline to obtain two concentrations of inoculum; 100,000 CFU/ml (Low) and 100,000,000 CFU/ml (High).\nOne hundred μl of each Low and High diluted Salmonella inoculum was pipetted into one of each duplicate palatant tubes to obtain one tube with 1,000 CFU/ml (Low) and one tube with […] (High). Samples were analyzed immediately after challenging, 24 hours and 6 days after storage at 25° C.\nEach tube of palatant was vortexed prior to serially diluting. Dilutions were pipetted into sterile petri plates. The plates were poured with tempered (45° C.) XLD agar. After solidification, plates were inverted and placed in an incubator (37° C.). Colonies were counted and CFU/ml was calculated. Detection limit of the method was 1 CFU/ml."}, "[3]": {"assay": "pH of 5% (w/v) solution of cat palatant formulated with fumaric acid", "assay_type": "physicochemical", "method": "as §1"}}}
{"smiles": "O=C(O)/C=C/C(=O)O", "note": "[Fumaric Acid, fumaric acid]", "values": [{"measurement": "inhibition of S. enterica growth in vitro (in words)", "setting": "[1]", "result": "effective antimicrobial agent"}, {"measurement": "Salmonella counts", "setting": "[2]; High inoculation (1,000,000 CFU/ml), 14% fumaric, day 0", "result": "<1", "unit": "CFU/ml"}, {"measurement": "Salmonella counts", "setting": "[2]; High inoculation, 14% fumaric, day 1", "result": "<1", "unit": "CFU/ml"}, {"measurement": "Salmonella counts", "setting": "[2]; High inoculation, 14% fumaric, day 6", "result": "<1", "unit": "CFU/ml"}, {"measurement": "Salmonella counts", "setting": "[2]; High inoculation, 20% fumaric, day 0", "result": "<1", "unit": "CFU/ml"}, {"measurement": "Salmonella counts", "setting": "[2]; High inoculation, 20% fumaric, day 1", "result": "<1", "unit": "CFU/ml"}, {"measurement": "Salmonella counts", "setting": "[2]; High inoculation, 20% fumaric, day 6", "result": "<1", "unit": "CFU/ml"}, {"measurement": "Salmonella counts", "setting": "[2]; High inoculation, 27% fumaric, day 0", "result": "<1", "unit": "CFU/ml"}, {"measurement": "Salmonella counts", "setting": "[2]; High inoculation, 27% fumaric, day 1", "result": "<1", "unit": "CFU/ml"}, {"measurement": "Salmonella counts", "setting": "[2]; High inoculation, 27% fumaric, day 6", "result": "<1", "unit": "CFU/ml"}, {"measurement": "Salmonella counts", "setting": "[2]; Low inoculation (1,000 CFU/ml), 14% fumaric in palatant, day 0", "result": "<1", "unit": "CFU/ml"}, {"measurement": "Salmonella counts", "setting": "[2]; Low inoculation, 14% fumaric, day 1", "result": "<1", "unit": "CFU/ml"}, {"measurement": "Salmonella counts", "setting": "[2]; Low inoculation, 14% fumaric, day 6", "result": "<1", "unit": "CFU/ml"}, {"measurement": "Salmonella counts", "setting": "[2]; Low inoculation, 20% fumaric, day 0", "result": "<1", "unit": "CFU/ml"}, {"measurement": "Salmonella counts", "setting": "[2]; Low inoculation, 20% fumaric, day 1", "result": "<1", "unit": "CFU/ml"}, {"measurement": "Salmonella counts", "setting": "[2]; Low inoculation, 20% fumaric, day 6", "result": "<1", "unit": "CFU/ml"}, {"measurement": "Salmonella counts", "setting": "[2]; Low inoculation, 27% fumaric, day 0", "result": "<1", "unit": "CFU/ml"}, {"measurement": "Salmonella counts", "setting": "[2]; Low inoculation, 27% fumaric, day 1", "result": "<1", "unit": "CFU/ml"}, {"measurement": "Salmonella counts", "setting": "[2]; Low inoculation, 27% fumaric, day 6", "result": "<1", "unit": "CFU/ml"}, {"measurement": "pH", "setting": "[3]; cat palatant with 14% fumaric acid in formula", "result": 3.15}, {"measurement": "pH", "setting": "[3]; cat palatant with 20% fumaric acid in formula", "result": 3.01}, {"measurement": "pH", "setting": "[3]; cat palatant with 27% fumaric acid in formula", "result": 2.93}]}
